# Measured values taken from ChEMBL document CHEMBL5728971, “Small molecule inhibitors of lactate dehydrogenase and methods of use thereof” (2022).
# Assay: Biochemical Assay: Test compounds were placed in a Greiner Bio-One (Monroe, N.C.) 1536-well black solid bottom assay plate. 200 millimolar (mM) Tris HCl, pH 7.4, 100 micromolar (μM) EDTA and 0.01% TWEEN-20™, final concentration, was used as the assay buffer. The LDHA reagent was 2 nanomolar (nM) Human LDHA (Meridian Life Science, Inc., Memphis, Tenn.), final concentration, in assay buffer.
row,SMILES,IC50
1,COc1cc(-c2nn(-c3nc(C(=O)O)cs3)c(CC3CC3)c2Cc2ccc(S(N)(=O)=O)cc2)ccc1F,< 0.1 µM
2,NS(=O)(=O)c1ccc(Cc2c(-c3cccc(OC4CCCC4)c3)nn(-c3nc(C(=O)O)cs3)c2CC2CC2)cc1F,< 0.1 µM
3,Cc1ccc(-c2cc(-c3nn(-c4nc(C(=O)O)cs4)c(CC4CC4)c3Cc3ccc(S(N)(=O)=O)cc3F)ccc2F)cc1,< 0.1 µM
4,CCOC(=O)c1csc(-n2nc(C3CCCCC3)c(Oc3ccc(S(N)(=O)=O)cc3)c2-c2ccccc2)n1,> 57 µM
5,CCOC(=O)c1csc(-n2nc(CC3CC3)c(Cc3ccc(S(N)(=O)=O)c(F)c3)c2-c2ccc(F)c(-c3cccc(OC)c3)c2)n1,> 57 µM
6,NS(=O)(=O)c1ccc(Cc2c(-c3ccc(F)c(-c4ccc(C5CC5)cc4)c3)nn(-c3nc(C(=O)O)cs3)c2CC2CC2)cc1,< 0.1 µM
7,CCOC(=O)c1csc(-n2nc(CC3CC3)c(Cc3ccc(S(N)(=O)=O)c(F)c3)c2-c2ccc(F)c(-c3cccc(F)c3)c2)n1,> 57 µM
8,COc1cccc(-c2cc(-c3c(Cc4ccc(S(N)(=O)=O)c(F)c4)c(CC4CC4)nn3-c3nc(C(=O)O)cs3)ccc2F)c1,in the range around 29 µM
9,COc1cccc(-c2cc(-c3nn(-c4nc(C(=O)O)cs4)c(CC4CC4)c3Cc3ccc(S(N)(=O)=O)cc3F)ccc2F)c1,< 0.1 µM
10,NS(=O)(=O)c1ccc(Cc2c(-c3ccc(F)c(-c4ccc(F)cc4)c3)nn(-c3nc(C(=O)O)cs3)c2CC2CC2)c(F)c1,< 0.1 µM
11,CCOC(=O)c1csc(-n2nc(-c3ccc(F)c(-c4cccc(OC)c4)c3)c(Cc3ccc(S(N)(=O)=O)c(F)c3)c2CC2CC2)n1,in the range around 29 µM
12,COc1cccc(-c2cc(-c3nn(-c4nc(C(=O)O)cs4)c(CC4CC4)c3Cc3ccc(S(N)(=O)=O)c(F)c3)ccc2F)c1,< 0.1 µM
13,CCOC(=O)c1csc(-n2nc(CC3CC3)c(Cc3ccc(S(N)(=O)=O)cc3F)c2-c2ccc(F)c(-c3cccc(OC)c3)c2)n1,> 57 µM
14,CCOC(=O)c1csc(-n2nc(-c3cccc(OC4CCCC4)c3)c(Cc3ccc(S(N)(=O)=O)c(F)c3)c2CC2CC2)n1,in the range around 29 µM
15,CCOC(=O)c1csc(-n2nc(-c3ccc(F)c(-c4cccc(F)c4)c3)c(Cc3ccc(S(N)(=O)=O)cc3F)c2CC2CC2)n1,in the range around 29 µM
16,CCOC(=O)c1csc(-n2nc(-c3cccc(OC4CCCC4)c3)c(Cc3ccc(S(N)(=O)=O)cc3F)c2CC2CC2)n1,in the range around 29 µM
17,CC(C)c1ccc(-c2cc(-c3nn(-c4nc(C(=O)O)cs4)c(CC4CC4)c3Cc3ccc(S(N)(=O)=O)cc3)ccc2F)cc1,< 0.1 µM
18,CCOC(=O)c1csc(-n2nc(-c3ccc(F)c(-c4cccc(OC)c4)c3)c(Cc3ccc(S(N)(=O)=O)cc3F)c2CC2CC2)n1,> 57 µM
19,NS(=O)(=O)c1ccc(Cc2c(-c3cccc(OC4CCCC4)c3)nn(-c3nc(C(=O)O)cs3)c2CC2CC2)cc1,< 0.1 µM
20,Cc1ccc(-c2cc(-c3nn(-c4nc(C(=O)O)cs4)c(CC4CC4)c3Cc3ccc(S(N)(=O)=O)c(F)c3)ccc2F)cc1,< 0.1 µM
21,CCOC(=O)c1csc(-n2nc(-c3ccccc3)c(Oc3ccc(S(N)(=O)=O)cc3)c2C2CCCCC2)n1,> 57 µM
22,Cc1ccc(-c2cc(-c3c(Cc4ccc(S(N)(=O)=O)cc4F)c(CC4CC4)nn3-c3nc(C(=O)O)cs3)ccc2F)cc1,in the range around 29 µM
23,NS(=O)(=O)c1ccc(Cc2c(-c3ccc(F)c(-c4cccc(F)c4)c3)nn(-c3nc(C(=O)O)cs3)c2CC2CC2)c(F)c1,< 0.1 µM
24,CCOC(=O)c1csc(-n2nc(-c3ccc(F)c(-c4cccc(F)c4)c3)c(Cc3ccc(S(N)(=O)=O)c(F)c3)c2CC2CC2)n1,> 57 µM
25,NS(=O)(=O)c1ccc(Cc2c(-c3ccc(F)c(-c4cccc(F)c4)c3)nn(-c3nc(C(=O)O)cs3)c2CC2CC2)cc1F,< 0.1 µM
26,CCOC(=O)c1csc(-n2nc(CC3CC3)c(Cc3ccc(S(N)(=O)=O)cc3F)c2-c2ccc(F)c(-c3cccc(F)c3)c2)n1,> 57 µM
27,Cc1ccc(-c2cc(-c3c(Cc4ccc(S(N)(=O)=O)c(F)c4)c(CC4CC4)nn3-c3nc(C(=O)O)cs3)ccc2F)cc1,in the range around 29 µM
28,COc1cccc(-c2cc(-c3c(Cc4ccc(S(N)(=O)=O)cc4F)c(CC4CC4)nn3-c3nc(C(=O)O)cs3)ccc2F)c1,in the range around 29 µM
29,NS(=O)(=O)c1ccc(Cc2c(-c3ccc(F)c(Br)c3)nn(-c3nc(C(=O)O)cs3)c2CC2CC2)cc1,< 0.1 µM
30,NS(=O)(=O)c1ccc(Cc2c(-c3cccc(OC4CCCC4)c3)nn(-c3nc(C(=O)O)cs3)c2CC2CC2)c(F)c1,< 0.1 µM

# More lines, now with the values ahead:
row,IC50,SMILES
1,< 0.1 µM,NS(=O)(=O)c1ccc(Cc2c(-c3cccc(-c4ccccc4)c3)nn(-c3nc(C(=O)O)cs3)c2CC2CC2)cc1
2,in the range around 29 µM,NS(=O)(=O)c1ccc(Cc2c(-c3cccc(-c4ccccc4)c3)nn(-c3nc(C(=O)O)cs3)c2C2(C(F)(F)F)CC2)cc1
3,< 0.1 µM,NS(=O)(=O)c1ccc(Cc2c(-c3cccc(-c4ccccc4)c3)nn(-c3nc(C(=O)O)cs3)c2CC2CC2)cc1F
4,< 0.1 µM,NS(=O)(=O)c1ccc(Cc2c(-c3cccc(-c4ccccc4)c3)nn(-c3nc(C(=O)O)cs3)c2CC2CC2)c(F)c1
5,in the range around 0.55 µM,NS(=O)(=O)c1ccc(Cc2c(-c3cccc(-c4ccccc4)c3)nn(-c3nc(C(=O)O)cs3)c2CC(F)(F)F)cc1
6,in the range around 29 µM,NS(=O)(=O)c1ccc(Cc2c(C3(C(F)(F)F)CC3)nn(-c3nc(C(=O)O)cs3)c2-c2cccc(-c3ccccc3)c2)cc1F
7,in the range around 29 µM,Cc1ccc(-c2cccc(-c3c(Cc4ccc(S(N)(=O)=O)cc4)c(CC4CC4)nn3-c3nc(C(=O)O)cs3)c2)cc1
8,> 57 µM,CCOC(=O)c1csc(-n2nc(-c3ccccc3)c(Cc3ccc(S(N)(=O)=O)cc3)c2C2CC2)n1
9,in the range around 29 µM,NS(=O)(=O)c1ccc(Cc2c(CC3CC3)nn(-c3nc(C(=O)O)cs3)c2-c2ccc(F)c(-c3cccc(F)c3)c2)c(F)c1
10,< 0.1 µM,Cc1ccc(-c2cccc(-c3nn(-c4nc(C(=O)O)cs4)c(CC4CC4)c3Cc3ccc(S(N)(=O)=O)cc3)c2)cc1
11,in the range around 29 µM,Cc1ccc(-c2cccc(-c3c(Cc4ccc(S(N)(=O)=O)c(F)c4)c(CC4CC4)nn3-c3nc(C(=O)O)cs3)c2)cc1
12,< 0.1 µM,NS(=O)(=O)c1ccc(Cc2c(-c3cccc(-c4cccc(F)c4)c3)nn(-c3nc(C(=O)O)cs3)c2C(F)(F)F)cc1
13,< 0.1 µM,Cc1ccc(-c2cccc(-c3nn(-c4nc(C(=O)O)cs4)c(CC4CC4)c3Cc3ccc(S(N)(=O)=O)cc3F)c2)cc1
14,in the range around 29 µM,NS(=O)(=O)c1ccc(Cc2c(CC3CC3)nn(-c3nc(C(=O)O)cs3)c2-c2ccc(F)c(-c3ccc(C4CC4)cc3)c2)cc1
15,in the range around 29 µM,NS(=O)(=O)c1ccc(Cc2c(CC3CC3)nn(-c3nc(C(=O)O)cs3)c2-c2cccc(-c3ccccc3)c2)cc1F
16,in the range around 29 µM,NS(=O)(=O)c1ccc(Cc2c(CC3CC3)nn(-c3nc(C(=O)O)cs3)c2-c2ccc(F)c(-c3ccc(F)cc3)c2)cc1
17,in the range around 29 µM,NS(=O)(=O)c1ccc(Cc2c(-c3cccc(-c4ccccc4)c3)nn(-c3nc(C(=O)O)cs3)c2C2(C(F)(F)F)CC2)cc1F
18,in the range around 29 µM,COc1cc(-c2c(Cc3ccc(S(N)(=O)=O)cc3)c(CC3CC3)nn2-c2nc(C(=O)O)cs2)ccc1F
19,in the range around 29 µM,Cc1ccc(-c2cc(-c3c(Cc4ccc(S(N)(=O)=O)cc4)c(CC4CC4)nn3-c3nc(C(=O)O)cs3)ccc2F)cc1

row,IC50,SMILES
1,in the range around 29 µM,C#Cc1c(Cc2ccc(S(N)(=O)=O)cc2)c(-c2ccccc2)nn1-c1nc(C(=O)O)cs1
2,in the range around 29 µM,NS(=O)(=O)c1ccc(Cc2c(CC3CC3)nn(-c3nc(C(=O)O)cs3)c2-c2ccc(F)c(-c3cccc(F)c3)c2)cc1F
3,in the range around 29 µM,CC(C)c1ccc(-c2cc(-c3c(Cc4ccc(S(N)(=O)=O)cc4)c(CC4CC4)nn3-c3nc(C(=O)O)cs3)ccc2F)cc1
4,in the range around 29 µM,NS(=O)(=O)c1ccc(Cc2c(CC3CC3)nn(-c3nc(C(=O)O)cs3)c2-c2ccc(F)c(-c3ccc(F)cc3)c2)c(F)c1
5,in the range around 29 µM,NS(=O)(=O)c1ccc(Cc2c(Cc3ccccc3)nn(-c3nc(C(=O)O)cs3)c2-c2ccccc2)cc1
6,< 0.1 µM,Cc1ccc(-c2cccc(-c3nn(-c4nc(C(=O)O)cs4)c(C(F)(F)F)c3Cc3ccc(S(N)(=O)=O)cc3)c2)cc1
7,< 0.1 µM,Cc1ccc(-c2cc(-c3nn(-c4nc(C(=O)O)cs4)c(CC4CC4)c3Cc3ccc(S(N)(=O)=O)cc3)ccc2F)cc1
8,> 57 µM,CCOC(=O)c1csc(-n2nc(-c3cccc(-c4ccccc4)c3)c(Cc3ccc(S(N)(=O)=O)cc3)c2C2(C(F)(F)F)CC2)n1
9,in the range around 0.55 µM,NS(=O)(=O)c1ccc(Cc2c(-c3cccc(-c4ccccc4)c3)nn(-c3nc(C(=O)O)cs3)c2C2(C(F)(F)F)CC2)c(F)c1
10,< 0.1 µM,Cc1ccc(-c2cccc(-c3nn(-c4nc(C(=O)O)cs4)c(CC4CC4)c3Cc3ccc(S(N)(=O)=O)c(F)c3)c2)cc1
11,in the range around 29 µM,NS(=O)(=O)c1ccc(Cc2c(C3(C(F)(F)F)CC3)nn(-c3nc(C(=O)O)cs3)c2-c2cccc(-c3ccccc3)c2)cc1
12,< 0.1 µM,COc1cccc(-c2cccc(-c3nn(-c4nc(C(=O)O)cs4)c(C(F)(F)F)c3Cc3ccc(S(N)(=O)=O)cc3)c2)c1
13,in the range around 29 µM,NS(=O)(=O)c1ccc(Cc2c(CC3CC3)nn(-c3nc(C(=O)O)cs3)c2-c2cccc(-c3ccccc3)c2)c(F)c1
14,in the range around 29 µM,NS(=O)(=O)c1ccc(Cc2c(CC(F)(F)F)nn(-c3nc(C(=O)O)cs3)c2-c2cccc(-c3ccccc3)c2)cc1
15,in the range around 29 µM,CCOC(=O)c1csc(-n2nc(-c3cccc(-c4ccccc4)c3)c(Cc3ccc(S(N)(=O)=O)cc3)c2CC2CC2)n1
16,in the range around 29 µM,NS(=O)(=O)c1ccc(Cc2c(CC3CC3)nn(-c3nc(C(=O)O)cs3)c2-c2ccc(F)c(Br)c2)cc1
17,< 0.1 µM,NS(=O)(=O)c1ccc(Cc2c(-c3ccc(F)c(-c4ccc(F)cc4)c3)nn(-c3nc(C(=O)O)cs3)c2CC2CC2)cc1
18,< 0.1 µM,NS(=O)(=O)c1ccc(Cc2c(-c3cccc(-c4ccc(F)cc4)c3)nn(-c3nc(C(=O)O)cs3)c2C(F)(F)F)cc1
